Patent US20250072423A1, “THIOPHENE ACETIC ACID FOR PLANT GROWTH REGULATION” (priority 2023, published 2025)

What was measured:
[1] = tested on: tomato cotyledon explants; assay: Shoot regeneration from tomato cotyledon explants with 1 mg/L BAP (Experiment 3); type: cell-based, tomato cultivar Roma VF
Description: The sterilized seeds were germinated on half-strength Murashige and Skoog (MS) medium in vitro. Cotyledons from 10-day old seedlings before first true leaves emerged were used as starting explants in all the experiments. The base and tip of the cotyledons were excised and the explants were transferred with the abaxial surface in contact with the culture medium. The basic culture medium consists of MS medium with vitamins supplemented with 30 g/L sucrose and gelled with 0.8% agar, and the pH of the medium was adjusted to 5.8±0.2. […] All experiments were conducted with at least three replicates of 10 explants each.
To analyse the effects on shoot regeneration, the basic media was supplemented with 1 mg/L BAP and different concentrations of TAA, IAA, NAA, IBA and 2,4 D (0.05, 0.1, 0.5, 1.0 and 2.0 mg/L) individually. Since there are no previous reports on suitable concentration ranges for TAA in tomato regeneration, concentrations at 50.0, 100.0, 200.0 and 300.0 mg/L were analysed additionally for TAA.

[2] = tested on: tomato cotyledon explants; assay: Root regeneration from tomato cotyledon explants in vitro (Experiment 2); type: cell-based, tomato cultivar Roma VF; conditions: 0.05 and 0.1 mg/L, no other hormones; for organogenesis from tomato cotyledon explants (root formation): within 7 days
Procedure: Seeds of tomato cultivar Roma VF were sterilized by treating with 75% ethanol for 30 seconds at room temperature and washed with sterile water for five times. The seeds were then treated with 15% sodium hypochlorite for 10 minutes and washed five times in sterile water. The sterilized seeds were germinated on half-strength Murashige and Skoog (MS) medium in vitro. Cotyledons from 10-day old seedlings before first true leaves emerged were used as starting explants in all the experiments. The base and tip of the cotyledons were excised and the explants were transferred with the abaxial surface in contact with the culture medium. The basic culture medium consists of MS medium with vitamins supplemented with 30 g/L sucrose and gelled with 0.8% agar, and the pH of the medium was adjusted to 5.8±0.2. Plates were maintained at a light cycle of 16/8 hours day/night, temperature of 26/24° C. day/night, and relative humidity of 70% and subcultured on the same media after 14 days. Observations were made on 7, 14, 21 and 28 days of growth. All experiments were conducted with at least three replicates of 10 explants each.
In order to analyze the effect of TAA on root regeneration, the basic media were supplemented with different concentrations of TAA (0.05 and 0.1 mg/L) and further compared with individual effect of widely used auxins (IAA, NAA, IBA, 2,4 D) at similar concentrations.

WT Arabidopsis seedlings [3] = assay: Root growth of WT Arabidopsis seedlings (Experiment 6); type: in vivo, A. thaliana; conditions: Arabidopsis thaliana, 144 h; 6 days growth, 8-day-old seedlings; read-out: concentration that reduced the primary root length to 50% of control
Procedure: (§1) Arabidopsis Columbia-0 wild type (WT) was used for assessing the effect of TAA on root growth and its effects on the expression of auxin-responsive genes. Seeds of A. thaliana were surface sterilized by suspending in 70% ethanol for 1 minute, followed by treatment with 10% bleach for 20 minutes. After thorough washing with sterile distilled water, the sterilized seeds were plated onto germination medium (half-strength Murashige and Skoog basal medium with vitamins (1/2 MS) medium supplemented with 1% sucrose and 0.7% plant agar) for germination. Germination was initiated by incubating the seeds in darkness at 5° C. for 2 days, followed by transfer to a light environment at 22° C. with a photoperiod of 16-h light/8-h dark for further growth. Stock solutions of TAA were prepared in DMSO (dimethyl sulfoxide). In control treatments, DMSO was used in equal amounts as present in the greatest concentration of TAA tested.
To analyze the effect of TAA on root growth, WT Arabidopsis seedlings were germinated as described and uniform-looking 8-day-old seedlings were transferred to germination medium supplemented with different concentrations of TAA (0.1, 1, 2, 5, 10, 25, 50, and 100 μM) or NAA/IAA/IBA (0.05, 0.1, 1, 2 and 5 μM). For IBA, two additional concentrations (10 and 25 μM) were also analyzed. Seedlings grown on media supplemented with an equal volume of DMSO were used as control. The seedlings were allowed to grow for 6 days and the plates were photographed at 24 h intervals. Primary root length was measured using Image J software. The difference in the number of lateral roots (LR) and root hairs was visually observed. Microscopic images were taken on a Leica Thunder Imager System (Leica Microsystems Ltd., Switzerland) and the images were processed with LAS X software.

tobacco leaf explants = assay: Shoot organogenesis from tobacco leaf explants in vitro (Experiment 4); type: cell-based, Nicotiana tabacum L. cv. Petit Havana SRI; conditions: 8 weeks
WT Arabidopsis seedlings [4] = assay: Root growth of WT Arabidopsis seedlings in the presence of NPA (Experiment 7); type: in vivo, A. thaliana; conditions: NPA even at low concentrations (0.5 μM)
Procedure: as §1
To analyze the effect of TAA on root growth in the presence of NPA (N-1-naphthylphthalamic acid), WT Arabidopsis seedlings were germinated as described and uniform-looking 8-day-old seedlings were transferred to germination medium supplemented with different concentrations of TAA (5 and 10 μM) and different concentrations of NPA (0, 0.5, 1, 2, 4, and 8 μM). The seedlings were allowed to grow for 6 days and the plates were photographed at 24 h intervals. […]

[5] = 1 mg/L IAA added to 3% MS + 2 mg/L kinetin
[6] = basic shoot regeneration media: 3% MS media + 2 mg/L kinetin

O=C(O)COc1ccc(Cl)cc1Cl [2,4D, 2,4-dichlorophenoxyacetic acid]
shoot organogenesis ([1]; 0.05, 0.1, 0.5, 1.0 and 2.0 mg/L with 1 mg/L BAP): did not show any shoot formation
organogenesis from tomato cotyledon explants ([2]; by Day 14): formed more callus and few of the explants showed longer roots
organogenesis from tomato cotyledon explants (root formation) [2]: the explants enlarged in size and started showing signs of callus formation

O=C(O)Cc1c[nH]c2ccccc12 [IAA, indole-3-acetic acid, reference compound]
shoot organogenesis ([1]; 2 mg/L with 1 mg/L BAP): mostly callus and root formation
shoot organogenesis ([1]; 0.05, 0.1, 0.5 and 1.0 mg/L with 1 mg/L BAP): better shoot formation than NAA
organogenesis from tomato cotyledon explants (root formation) [2]: rapid root formation
IC50 (WT Arabidopsis seedlings [3]): 0.1 µM
increase of number of shoots regenerated per explant versus basic shoot regeneration media (tobacco leaf explants; [5]): more than 3 times
increase of total number of shoots regenerated versus basic shoot regeneration media (tobacco leaf explants; [5]): more than 3 times

O=C(O)CCCc1c[nH]c2ccccc12 [IBA, indole-3-butyric acid]
shoot organogenesis ([1]; 0.05, 0.1 and 0.5 mg/L with 1 mg/L BAP): callus and well-defined shoot formation
shoot organogenesis ([1]; 1.0 and 2.0 mg/L with 1 mg/L BAP): mostly callus and some root formation
organogenesis from tomato cotyledon explants (root formation) [2]: rapid root formation
IC50 (WT Arabidopsis seedlings [3]): 10 µM

O=C(O)Cc1cccc2ccccc12 [NAA, naphthalene-1-acetic acid]
shoot organogenesis ([1]; 0.05 mg/L with 1 mg/L BAP): most explants produced callus, but a few produced shoots
shoot organogenesis ([1]; higher concentrations (above 0.05 up to 2.0 mg/L) with 1 mg/L BAP, Day 28): mostly callus by Day 28, but a few of them showed root formation
organogenesis from tomato cotyledon explants (root formation) [2]: rapid root formation
IC50 (WT Arabidopsis seedlings [3]): 0.05 µM

O=C(O)c1ccccc1C(=O)Nc1cccc2ccccc12 [NPA, N-1-naphthylphthalamic acid, reference compound]
primary root length and number of LR (WT Arabidopsis seedlings [4]): reduced primary root length and the number of LR

c1coc(CNc2ncnc3[nH]cnc23)c1 [kinetin, reference compound]
average number of shoots per explant (tobacco leaf explants; [6]): 3.10
total number of shoots regenerated per plate (tobacco leaf explants; [6]): 21.7
